The values below come from PMC6864818, “Antioxidant, Xanthine Oxidase, α-Amylase and α-Glucosidase Inhibitory Activities of Bioactive Compounds from Rumex crispus L. Root” (Molecules, 2019).

Assay [1] can be described thus: DPPH radical scavenging assay. Particulars: for IC50: value in brackets.
Procedure: (§1) Antioxidant activity of the isolated compounds was determined using DPPH (2,2-diphenyl-1-picrylhydrazyl) radical scavenging assay, ABTS (2,2′-azinobis-(3-ethylbenzothiazoline-6-sulfonic acid)) radical cation decolorization assay, ferric reducing antioxidant power test (FRAP) following previous study [37, 38, 39] with slight modifications.
Assay [2] can be described thus: ABTS radical cation decolorization assay. Particulars: ABTS radical scavenging; for IC50: value in brackets.
Procedure: as §1
Assay [3] is described as follows: ferric reducing antioxidant power test (FRAP). Particulars: for IC50: value in brackets.
Procedure: as §1
Assay [4] has as its target T1, xanthine oxidase (Homo sapiens, UniProt P47989). Kind of assay: Xanthine oxidase inhibition (XOD), spectrophotometric. In kind it is biochemical.
The target of assay [5] is T2, α-glucosidase (Saccharomyces cerevisiae, UniProt P53341).
T2 construct: purchased Sigma-Aldrich
T2 sequence (P53341 whole entry): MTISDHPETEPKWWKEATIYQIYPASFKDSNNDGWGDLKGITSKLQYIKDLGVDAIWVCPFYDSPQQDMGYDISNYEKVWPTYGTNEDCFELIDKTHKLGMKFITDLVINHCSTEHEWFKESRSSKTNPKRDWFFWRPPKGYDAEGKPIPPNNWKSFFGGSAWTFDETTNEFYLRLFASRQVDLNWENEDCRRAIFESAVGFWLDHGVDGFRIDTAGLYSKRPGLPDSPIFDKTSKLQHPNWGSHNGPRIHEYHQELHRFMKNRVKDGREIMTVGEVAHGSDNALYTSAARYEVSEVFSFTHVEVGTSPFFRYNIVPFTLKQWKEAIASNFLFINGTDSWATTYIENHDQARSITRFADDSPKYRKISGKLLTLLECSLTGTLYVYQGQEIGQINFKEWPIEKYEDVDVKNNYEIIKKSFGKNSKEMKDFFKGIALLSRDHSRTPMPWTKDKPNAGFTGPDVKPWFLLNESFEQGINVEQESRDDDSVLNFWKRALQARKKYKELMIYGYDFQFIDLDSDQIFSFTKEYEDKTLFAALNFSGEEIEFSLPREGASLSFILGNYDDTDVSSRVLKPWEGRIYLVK
Put plainly: α-Glucosidase inhibition (AGI), pNPG substrate. Type of assay: biochemical. The protocol:
The α-glucosidase inhibitory activity of isolated fractions was assayed using a synthetic substrate p-nitrophenyl-α-D-glucopyranoside (pNPG). […] (Table 5).
The anti-α-glucosidase activity of C1–C3 was evaluated using a method described previously with some modifications. In brief, an amount of 20 µL methanolic stock solution of isolated compounds was pre-mixed with an equal volume of 0.1 M potassium phosphate buffer (pH 7) and 40 µL of α-glucosidase (from Saccharomyces cerevisiae, Sigma-Aldrich, St. Louis, MO, USA) enzyme solution (0.5 U/mL in 0.1 M potassium phosphate buffer, pH 7). After 6 min incubation at 25 °C, a 20 µL aliquot of 5 mM p-nitrophenyl-α-D-glucopyranoside (pNPG) substrate (in 0.1 M potassium phosphate buffer, pH 7) was added to each reaction and the mixture was incubated for another 8 min. The reaction was terminated by adding 100 µL of 0.2 M Na2CO3, and absorbance was recorded at 405 nm.

In assay [6] the target is T1, xanthine oxidase. As to conditions: modified xanthine oxidase inhibition methods; ref [33]; cited from earlier work.

≈ marks a conversion by molar mass, not a printed value. Where “and” joins values, the source holds several entries; their conditions need not be identical. Equal values may be shown once. Read-outs that look alike come from different tables or passages of the source. Marks after values point to notes of the source that are not given here.

T1 sequence (P47989 whole entry, species assumed): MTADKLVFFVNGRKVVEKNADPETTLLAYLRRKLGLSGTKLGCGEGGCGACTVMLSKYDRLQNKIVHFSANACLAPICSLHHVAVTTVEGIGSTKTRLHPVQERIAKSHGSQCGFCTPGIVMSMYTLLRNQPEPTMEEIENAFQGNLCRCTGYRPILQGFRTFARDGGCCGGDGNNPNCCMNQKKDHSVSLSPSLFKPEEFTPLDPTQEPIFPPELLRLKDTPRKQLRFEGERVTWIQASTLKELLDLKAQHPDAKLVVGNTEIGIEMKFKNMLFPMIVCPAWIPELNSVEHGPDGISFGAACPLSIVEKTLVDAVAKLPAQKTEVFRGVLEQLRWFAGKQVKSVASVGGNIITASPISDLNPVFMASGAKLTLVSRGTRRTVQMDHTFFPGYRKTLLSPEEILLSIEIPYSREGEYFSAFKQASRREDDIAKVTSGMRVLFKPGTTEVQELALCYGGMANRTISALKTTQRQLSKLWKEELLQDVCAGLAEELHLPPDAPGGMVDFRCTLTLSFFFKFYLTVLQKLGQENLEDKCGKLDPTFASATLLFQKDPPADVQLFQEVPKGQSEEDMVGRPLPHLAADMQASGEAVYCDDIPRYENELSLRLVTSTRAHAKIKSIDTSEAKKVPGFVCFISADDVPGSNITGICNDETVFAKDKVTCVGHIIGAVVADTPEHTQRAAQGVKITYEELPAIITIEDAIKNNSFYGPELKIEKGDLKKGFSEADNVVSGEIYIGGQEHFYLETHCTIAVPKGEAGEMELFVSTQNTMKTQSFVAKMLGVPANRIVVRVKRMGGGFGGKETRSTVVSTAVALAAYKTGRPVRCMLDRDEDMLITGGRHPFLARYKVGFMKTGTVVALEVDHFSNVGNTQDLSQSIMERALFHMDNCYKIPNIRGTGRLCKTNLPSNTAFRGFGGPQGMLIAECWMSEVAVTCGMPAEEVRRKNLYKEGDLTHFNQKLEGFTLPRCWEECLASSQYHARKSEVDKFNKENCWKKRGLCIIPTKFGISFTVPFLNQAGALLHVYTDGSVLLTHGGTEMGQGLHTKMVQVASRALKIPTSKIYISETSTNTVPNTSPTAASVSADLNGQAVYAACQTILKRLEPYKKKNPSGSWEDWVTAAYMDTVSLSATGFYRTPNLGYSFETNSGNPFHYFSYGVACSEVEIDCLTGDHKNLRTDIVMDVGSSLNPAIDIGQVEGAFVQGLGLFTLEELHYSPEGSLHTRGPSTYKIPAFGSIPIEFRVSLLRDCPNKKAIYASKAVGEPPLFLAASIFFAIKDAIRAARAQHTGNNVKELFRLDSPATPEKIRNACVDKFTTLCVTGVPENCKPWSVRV

For `Cc1cc(C(C)(C)C)c(O)c(C(C)(C)C)c1` [BHT, reference compound], in assay [1], the “IC50 DPPH” value is 19.4 µg/mL and 19.2 ± 0.3^b µg/mL; the IC50 is 87.1 µM. Further, in assay [2], the “IC50 ABTS” value is reported as 46.9 ± 0.9^b µg/mL and 213 µM corresponded to half-maximal inhibition (IC50). In addition, in assay [3], the “IC50 FRAP” value was 422.1 ± 1.1^b µg/mL and inhibition was half-maximal at 1920 µM (IC50).

In the case of `Cc1cc(O)c2c(c1)C(=O)c1cccc(O)c1C2=O` [Fraction C2, 1,8-dihydroxy-3-methylanthraquinone], the “IC50 DPPH” value in assay [1] is 10.0 ± 0.3^c µg/mL; in assay [1] (listed as 1), 9.8 µg/mL (≈ 38.5 µM). The IC50 was 39.4 µM in assay [1]; 135 µM in assay [2]; 1230 µM in assay [3]; 143 µM in assay [4]; 143 µM in assay [4] (value in brackets); 79.1 µM in assay [5] (pNPG). The IC50 in assay [5] (value in brackets) is 79.1 µM. The “IC50 ABTS” value in assay [2] is reported as 34.3 ± 0.7^c µg/mL. The “IC50 FRAP” value in assay [3] is 312.6 ± 6.3^c µg/mL.

For the compound `COc1cc(O)c2c(c1)C(=O)c1cc(C)cc(O)c1C2=O` [Fraction C3, 1,8-dihydroxy-3-methoxy-6-methylanthraquinone], the “IC50 DPPH” value was 12.0 ± 0.2^c µg/mL in assay [1] and 12.1 µg/mL (≈ 42.6 µM) in assay [1] (listed as 2). The IC50 in assay [1] was 42.3 µM; in assay [2], 158 µM; in assay [3], 1440 µM; in assay [4], 158 µM; in assay [4] (value in brackets) it was 158 µM; in assay [5] (pNPG) it was 66.5 µM. The compound further gave an IC50 in assay [5] (value in brackets) of 66.5 µM. Further, in assay [2], the “IC50 ABTS” value is 44.8 ± 0.8^b µg/mL. The “IC50 FRAP” value in assay [3] is listed as 408.6 ± 6.8^b µg/mL.

In the case of `O=C(O)[C@H]1O[C@@H](Oc2cc3oc(-c4ccccc4)cc(=O)c3c(O)c2O)[C@H](O)[C@@H](O)[C@@H]1O` [baicalin], in assay [6], the IC50 was 215 µM.

Turning to `COc1c(O)cc(O)c2c(=O)cc(-c3ccccc3)oc12` [wogonin], in assay [6], the IC50 is 157 µM.
